According to ChEMBL document CHEMBL1121521, “Inhibitors of Bacillus subtilis DNA polymerase III. 6-Anilinouracils and 6-(alkylamino)uracils” (J Med Chem, 1980):

Assays:
[1] = target: T1, DNA polymerase III PolC-type (Bacillus subtilis (strain 168), UniProt P13267); assay: Inhibition against Bacillus subtilis DNA Polymerase III/azp-12(mutant)
Target sequence in this assay (P13267 whole entry, looked up): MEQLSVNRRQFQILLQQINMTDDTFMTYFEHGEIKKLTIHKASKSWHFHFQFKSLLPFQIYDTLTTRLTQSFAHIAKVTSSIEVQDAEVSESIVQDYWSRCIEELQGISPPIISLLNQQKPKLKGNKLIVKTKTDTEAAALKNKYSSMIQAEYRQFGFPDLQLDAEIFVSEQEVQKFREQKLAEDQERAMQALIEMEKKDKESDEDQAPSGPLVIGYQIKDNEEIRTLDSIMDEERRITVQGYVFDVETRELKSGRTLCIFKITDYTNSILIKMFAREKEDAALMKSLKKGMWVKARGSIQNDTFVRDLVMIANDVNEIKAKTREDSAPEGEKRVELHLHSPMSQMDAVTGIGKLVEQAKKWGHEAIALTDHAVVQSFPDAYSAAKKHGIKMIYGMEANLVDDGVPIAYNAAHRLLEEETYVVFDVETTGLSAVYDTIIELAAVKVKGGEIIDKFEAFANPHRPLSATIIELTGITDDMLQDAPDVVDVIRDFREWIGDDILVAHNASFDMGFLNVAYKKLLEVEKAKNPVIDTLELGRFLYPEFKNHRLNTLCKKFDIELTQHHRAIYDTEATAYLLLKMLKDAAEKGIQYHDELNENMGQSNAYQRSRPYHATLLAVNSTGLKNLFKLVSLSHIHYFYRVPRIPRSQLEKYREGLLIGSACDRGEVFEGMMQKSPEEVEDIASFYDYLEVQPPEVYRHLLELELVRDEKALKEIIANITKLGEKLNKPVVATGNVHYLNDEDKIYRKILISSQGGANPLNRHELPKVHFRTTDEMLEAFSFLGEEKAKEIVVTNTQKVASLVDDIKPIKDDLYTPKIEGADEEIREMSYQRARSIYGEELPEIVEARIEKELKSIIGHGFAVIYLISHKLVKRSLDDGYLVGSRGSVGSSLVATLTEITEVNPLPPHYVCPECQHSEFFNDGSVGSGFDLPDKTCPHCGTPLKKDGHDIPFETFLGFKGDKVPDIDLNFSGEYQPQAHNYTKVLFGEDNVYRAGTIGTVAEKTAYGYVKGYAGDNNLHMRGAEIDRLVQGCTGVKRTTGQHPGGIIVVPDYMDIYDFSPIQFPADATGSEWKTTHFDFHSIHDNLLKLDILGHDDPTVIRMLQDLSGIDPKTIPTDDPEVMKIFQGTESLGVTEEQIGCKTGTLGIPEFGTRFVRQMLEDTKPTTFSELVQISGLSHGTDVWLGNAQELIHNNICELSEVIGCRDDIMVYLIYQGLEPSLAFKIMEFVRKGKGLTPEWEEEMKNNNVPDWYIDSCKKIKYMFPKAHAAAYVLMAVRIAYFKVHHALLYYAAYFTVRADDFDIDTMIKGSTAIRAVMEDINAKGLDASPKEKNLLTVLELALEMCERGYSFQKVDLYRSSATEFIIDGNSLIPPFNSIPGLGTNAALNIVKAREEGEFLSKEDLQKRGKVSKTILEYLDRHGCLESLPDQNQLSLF

[2] = target: T1, DNA polymerase III PolC-type; assay: Inhibition against Bacillus subtilis DNA polymerase III (wild type)
Target sequence in this assay (P13267 whole entry): as the sequence (P13267 whole entry, looked up) above

[3] = target: DNA polymerase III PolC-type (Bacillus subtilis (strain 168)) (UniProt P13267); assay: Degree of resistance is the ratio between inhibition of Bacillus subtilis DNA Polymerase III azp-12 and WT.
Sequence of DNA polymerase III PolC-type (Bacillus subtilis (strain 168)) (P13267 whole entry): as the sequence (P13267 whole entry, looked up) above

[4] = target: T1, DNA polymerase III PolC-type; assay: In vitro inhibition of Bacillus subtilis DNA Polymerase III/azp-12(mutant).
Target sequence in this assay (P13267 whole entry, looked up): as above

[5] = target: T1, DNA polymerase III PolC-type; assay: Inhibition of Bacillus subtilis […](wild type); NA = inactive (<10% inhibition at 1000 uM)
Target sequence in this assay (P13267 whole entry): as the sequence (P13267 whole entry, looked up) above

[6] = target: T1, DNA polymerase III PolC-type; assay: Inhibition against Bacillus subtilis DNA Polymerase III/azp-12(mutant);NA = inactive (<10% inhibition at 1000 uM)
Target sequence in this assay (P13267 whole entry, looked up): as above

[7] = target: T1, DNA polymerase III PolC-type; assay: Inhibition of Bacillus subtilis DNA polymerase III (wild type)
Target sequence in this assay (P13267 whole entry): as the sequence (P13267 whole entry, looked up) above

[8] = target: T1, DNA polymerase III PolC-type; assay: Inhibition of Bacillus subtilis DNA polymerase III (wild type); NA = inactive (<10% inhibition at 1000 uM)
Target sequence in this assay (P13267 whole entry): as the sequence (P13267 whole entry, looked up) above

Row | SMILES | Ki [2] | Degree of resistance [3] | other results
1 | Nc1ccc(Nc2cc(=O)[nH]c(=O)[nH]2)cc1 | 640 µM |  | Ki [1]: 3900 µM
2 | CC(C)c1ccc(Nc2cc(O)nc(O)n2)cc1 |  | 0.065 | 
3 | CCCCc1ccc(Nc2cc(O)nc(O)n2)cc1 |  | 0.4 | 
4 | Cc1cc(Nc2cc(=O)[nH]c(=O)[nH]2)ccc1N | 19 µM |  | Ki [1]: 158 µM
5 | Oc1cc(Nc2cccc(I)c2)nc(O)n1 |  | 4.3 | 
6 | Cc1ccc(Nc2cc(O)nc(O)n2)c(C)c1 | 1990 µM |  | 
7 | Oc1cc(Nc2ccc3c(c2)CCC3)nc(O)n1 | 0.42 µM |  | 
8 | CCCc1ccc(Nc2cc(O)nc(O)n2)cc1 |  | 0.12 | 
9 | O=c1cc(Nc2cccc(CO)c2)[nH]c(=O)[nH]1 | 413 µM |  | Ki [4]: 5130 µM
10 | Cc1cccc(Nc2cc(=O)[nH]c(=O)[nH]2)c1 | 42.8 µM |  | Ki [4]: 178 µM
11 | Cc1cccc(Nc2cc(=O)[nH]c(=O)[nH]2)c1C | 223 µM |  | 
12 | CCc1ccccc1Nc1cc(O)nc(O)n1 |  |  | Ki [5]: Not Active
13 | Oc1cc(Nc2cccc(Cl)c2)nc(O)n1 | 25 µM | 1.7 | Ki [4]: 41.7 µM
14 | CCc1ccc(Nc2cc(O)nc(O)n2)cc1 |  | 0.3 | 
15 | COc1ccc(Nc2cc(O)nc(O)n2)cc1 | 120 µM | 1 | Ki [4]: 120 µM
16 | Cc1cccc(Nc2cc(O)nc(O)n2)c1 |  | 4.2 | 
17 | Oc1cccc(Nc2cc(O)nc(O)n2)c1 | 2630 µM |  | Ki [6]: Not Active
18 | Cc1ccc(Nc2cc(O)nc(O)n2)cc1C | 0.92 µM | 3.9 | Ki [4]: 3.5 µM
19 | C=CCNc1cc(O)nc(O)n1 |  |  | Ki [7]: 22400 µM
20 | Oc1cc(Nc2ccc(Cl)c(Cl)c2)nc(O)n1 | 0.93 µM |  | 
21 | CCCCCCNc1cc(=O)[nH]c(=O)[nH]1 | 370 µM |  | 
22 | Oc1cc(Nc2cccc(Br)c2)nc(O)n1 | 10.3 µM | 2.1 | Ki [4]: 21.9 µM
23 | OCc1ccc(Nc2cc(O)nc(O)n2)cc1 |  | 0.6 | 
24 | CCCCCCCCCCNc1cc(O)nc(O)n1 |  |  | Ki [5]: Not Active
25 | Cc1ccc(Nc2cc(=O)[nH]c(=O)[nH]2)cc1CO | 78.5 µM |  | 
26 | O=c1cc(NCCCCCO)[nH]c(=O)[nH]1 | 13500 µM |  | 
27 | Cc1ccc(Nc2cc(=O)[nH]c(=O)[nH]2)cc1I | 0.38 µM |  | 

Row | SMILES | Ki [2] | Degree of resistance [3] | other results
28 | CC(=O)Nc1cc(Nc2cc(O)nc(O)n2)ccc1C | 460 µM |  | 
29 | O=c1cc(Nc2cccc(CCl)c2)[nH]c(=O)[nH]1 | 7.6 µM |  | 
30 | CCc1cccc(Nc2cc(O)nc(O)n2)c1 |  | 6.4 | 
31 | CC(C)CCNc1cc(=O)[nH]c(=O)[nH]1 | 2400 µM |  | 
32 | CC(=O)Nc1ccc(Nc2cc(=O)[nH]c(=O)[nH]2)cc1C | 464 µM |  | 
33 | CCCNc1cc(O)nc(O)n1 |  |  | Ki [8]: Not Active
34 | Cc1cc(Nc2cc(O)nc(O)n2)ccc1Br |  | 0.85 | 
35 | CCCc1ccc(Nc2cc(=O)[nH]c(=O)[nH]2)cc1 | 452 µM |  | Ki [4]: 54 µM
36 | Cc1ccc(Nc2cc(O)nc(O)n2)cc1 |  | 3.9 | 
37 | Cc1ccc(C)c(Nc2cc(O)nc(O)n2)c1 | 1360 µM |  | 
38 | O=c1cc(Nc2ccc(C(F)(F)F)cc2)[nH]c(=O)[nH]1 | 101 µM |  | 
39 | Cc1ccc(Nc2cc(O)nc(O)n2)cc1Cl | 0.63 µM |  | 
40 | Oc1cc(Nc2ccc(Br)cc2)nc(O)n1 |  | 0.13 | 
41 | CCCCNc1cc(O)nc(O)n1 |  |  | Ki [7]: 5370 µM
42 | CCNc1cc(O)nc(O)n1 |  |  | Ki [5]: Not Active
43 | Cc1cc(C)c(Nc2cc(O)nc(O)n2)c(C)c1 |  |  | Ki [5]: Not Active
44 | Cc1ccccc1Nc1cc(O)nc(O)n1 |  |  | Ki [8]: Not Active
45 | Oc1ccc(Nc2cc(O)nc(O)n2)cc1 |  | 2.2 | 
46 | O=c1cc(Nc2cccc3ccccc23)[nH]c(=O)[nH]1 | 82.6 µM |  | 
47 | O=c1cc(Nc2ccc(Cl)cc2)[nH]c(=O)[nH]1 |  | 0.56 | 
48 | O=c1cc(Nc2ccc3ccccc3c2)[nH]c(=O)[nH]1 | 6.8 µM |  | 
49 | CCCCCNc1cc(=O)[nH]c(=O)[nH]1 |  |  | Ki [7]: 335 µM
50 | OCc1cccc(Nc2cc(O)nc(O)n2)c1 |  | 12.4 | 
51 | Cc1ccc(Nc2cc(=O)[nH]c(=O)[nH]2)cc1N | 122 µM |  | Ki [1]: 298 µM
52 | Cc1ccc(Nc2cc(O)nc(O)n2)cc1CCl | 0.26 µM |  | 
53 | Cc1cc(C)cc(Nc2cc(=O)[nH]c(=O)[nH]2)c1 | 124 µM |  | 
